According to patent US20240262818A1, “Selenium Maleimide Compounds And Uses Thereof” (THE UNIVERSITY OF NORTH CAROLINA AT CHAPEL HILL, priority 2021, published 2024):

How the values were obtained:
[1] = assay type: physicochemical
Procedure: Synthesis of Compound 1: Selenium (31.0 mg, 0.39 mmol, 1.00 equiv.) was suspended in an aqueous solution of 1M NaOH (6 mL) under Ar atmosphere. To the solution, Rongalite (i.e., sodium hydroxymethanesulfinate, Na^+HOCH2SO2^−) (120.0 mg, 0.78 mmol, 2.00 equiv.) was added and stirred vigorously. Then, the reaction solution was heated to 80° C. using an oil bath. After reacting for 0.5 h, hepta-4,6-diynoic acid (44.0 mg, 0.36 mmol, 0.92 equiv.) in ethanol (4 mL) was added and the reaction mixture was reacted at 80° C. for an additional 5 h. The reaction was allowed to cool to room temperature and diluted with a saturated NH4Cl aqueous solution (10 mL). The solution was transferred to separatory funnel and extracted with EtOAc (20 mL×3). The combined organic layer was washed with brine (50 mL) and dried over MgSO4, filtered, concentrated, and purified by flash chromatography (20:1 hexanes:ethyl acetate to 10:1 to 5:1 to 2:1 to 1:1) to yield selenium compound 1 in 45% yield (36 mg). Isotopically pure compounds were also prepared by following the above described procedure.

[2] = system: peripheral blood mononuclear cells (PBMC); experiment: Labeling of PBMC with SeMal reagents, mass cytometry; assay type: cell-based; settings: viable, fixed and fixed and permeabilized PBMC
Procedure: (§1) 3×10^6 viable, paraformaldehyde-fixed, or fixed and permeabilized peripheral blood mononuclear cells (PBMC) were incubated for 15 min with the indicated concentration of SeMal reagent in 0.2 ml PBS. Binding reactions were stopped by the addition of 5-fold excess volume of Cell Staining Buffer (Fluidigm) followed by incubation with Iridium using standard protocols. Data representations are from gated viable single cells. Cell viability […] incubation (for the viable cell condition) was >98%.

[3] = system: viable peripheral blood mononuclear cells (PBMC); experiment: Cell viability after SeMal incubation; assay type: cell-based; settings: at working concentrations
Procedure: as §1

Row | SMILES | stability on storage [1] | labeling of PBMC [2] | toxicity when labeling viable cells [3]
1 | O=C(O)CCc1ccc[se]1 [Compound 1] | sufficient stability | – | –
2 | O=C(CCc1ccc[se]1)NCCN1C(=O)C=CC1=O [Compound 2] | – | effectively label | non-toxic
